From ChEMBL document CHEMBL1143211, “Inhibitors of proteases and amide hydrolases that employ an alpha-ketoheterocycle as a key enabling functionality” (Bioorg Med Chem, 2008)
Converted amounts (≈) assume the structure as drawn.

Legend:
[1] = Selectivity for human beta-tryptase over trypsin
[2] = Selectivity for human beta-tryptase over kallikrein
Homo sapiens [3] = organism: Homo sapiens; assay: Selectivity for human beta-tryptase over human alpha thrombin
[4] = Oral bioavailability in rat; type: ADME, organism-based; conditions: in vivo
[5] = Selectivity for human beta-tryptase over plasmin
[6] = Inhibition of human beta-tryptase
[7] = Selectivity for human beta-tryptase over uPA
Coagulation factor X = Coagulation factor X (Homo sapiens, UniProt P00742); assay: Inhibition of human factor 10a
Coagulation factor X, sequence (P00742 41-179 limits assumed): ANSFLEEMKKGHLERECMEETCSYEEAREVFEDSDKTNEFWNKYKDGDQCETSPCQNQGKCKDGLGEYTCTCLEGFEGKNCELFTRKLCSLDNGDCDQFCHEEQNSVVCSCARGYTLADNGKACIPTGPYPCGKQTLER
Coagulation factor X, sequence (P00742 235-488 limits assumed): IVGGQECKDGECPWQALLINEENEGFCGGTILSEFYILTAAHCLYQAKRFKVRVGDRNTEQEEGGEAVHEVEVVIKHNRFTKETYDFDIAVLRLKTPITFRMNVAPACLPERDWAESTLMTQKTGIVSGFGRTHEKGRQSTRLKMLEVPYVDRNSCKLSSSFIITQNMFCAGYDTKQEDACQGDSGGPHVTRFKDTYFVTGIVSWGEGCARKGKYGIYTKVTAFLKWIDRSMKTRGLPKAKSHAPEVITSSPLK

Coagulation factor XI = Coagulation factor XI (Homo sapiens, UniProt P03951)
Coagulation factor XI, sequence (P03951 19-387 limits assumed): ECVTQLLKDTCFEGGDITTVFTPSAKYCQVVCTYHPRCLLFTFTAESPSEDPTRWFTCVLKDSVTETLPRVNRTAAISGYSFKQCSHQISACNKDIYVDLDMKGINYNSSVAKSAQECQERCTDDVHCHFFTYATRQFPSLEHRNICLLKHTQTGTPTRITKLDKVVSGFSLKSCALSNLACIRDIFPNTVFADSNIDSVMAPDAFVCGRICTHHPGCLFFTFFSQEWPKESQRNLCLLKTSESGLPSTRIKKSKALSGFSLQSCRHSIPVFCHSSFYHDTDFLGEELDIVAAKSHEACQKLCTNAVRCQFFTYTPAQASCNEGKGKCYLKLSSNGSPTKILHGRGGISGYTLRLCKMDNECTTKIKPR
Coagulation factor XI, sequence (P03951 388-625 limits assumed): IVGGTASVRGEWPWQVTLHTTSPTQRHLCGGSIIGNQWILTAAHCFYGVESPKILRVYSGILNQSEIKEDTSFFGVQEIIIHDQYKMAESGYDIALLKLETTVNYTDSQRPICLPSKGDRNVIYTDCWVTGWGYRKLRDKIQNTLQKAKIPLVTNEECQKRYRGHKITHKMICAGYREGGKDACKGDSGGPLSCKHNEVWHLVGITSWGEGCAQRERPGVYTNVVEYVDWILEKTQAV

Prothrombin = Prothrombin (Homo sapiens, UniProt P00734); assay: Inhibition of human alpha-thrombin
Trypanosoma cruzi = assay: microbe, parasite or virus in culture; conditions: read-out: ED50
[8] = tested on: Trypanosoma brucei rhodesiense; assay: microbe, parasite or virus in culture; conditions: read-out: ED50
[9] = Inhibition of Staphylococcus aureus methionine aminopeptidase
Proline iminopeptidase = Proline iminopeptidase (Serratia marcescens, UniProt O32449); assay: Inhibition of Serratia marcescens prolyl aminopeptidase
Proline iminopeptidase, sequence (O32449 whole entry): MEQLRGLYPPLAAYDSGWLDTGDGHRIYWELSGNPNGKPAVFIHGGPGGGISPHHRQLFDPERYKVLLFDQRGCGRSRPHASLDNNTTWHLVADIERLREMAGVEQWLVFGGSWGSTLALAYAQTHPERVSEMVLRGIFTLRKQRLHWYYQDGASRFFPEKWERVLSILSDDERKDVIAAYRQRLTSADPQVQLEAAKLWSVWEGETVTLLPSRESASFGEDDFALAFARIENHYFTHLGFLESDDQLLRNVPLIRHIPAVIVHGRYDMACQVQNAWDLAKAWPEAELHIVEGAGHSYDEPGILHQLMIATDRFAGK

Osteoclast = assay: Inhibition of bovine bone resorption in rabbit osteoclasts; type: functional, cell-based; conditions: Oryctolagus cuniculus
Platelet = assay: Antithrombotic activity assessed as inhibition of alpha-thrombin-induced human platelet aggregation; type: functional, cell-based
Canis familiaris = assay: Antithrombotic activity in iv dosed dog areteriovenous shunt model assessed as inhibition of thrombus accumulation; type: functional; conditions: Canis lupus familiaris
[10] = target: T1, Trifunctional purine biosynthetic protein adenosine-3 (Homo sapiens, UniProt P22102); assay: Inhibition of human glycinamide ribonucleotide transformylase
T1 sequence (P22102 whole entry): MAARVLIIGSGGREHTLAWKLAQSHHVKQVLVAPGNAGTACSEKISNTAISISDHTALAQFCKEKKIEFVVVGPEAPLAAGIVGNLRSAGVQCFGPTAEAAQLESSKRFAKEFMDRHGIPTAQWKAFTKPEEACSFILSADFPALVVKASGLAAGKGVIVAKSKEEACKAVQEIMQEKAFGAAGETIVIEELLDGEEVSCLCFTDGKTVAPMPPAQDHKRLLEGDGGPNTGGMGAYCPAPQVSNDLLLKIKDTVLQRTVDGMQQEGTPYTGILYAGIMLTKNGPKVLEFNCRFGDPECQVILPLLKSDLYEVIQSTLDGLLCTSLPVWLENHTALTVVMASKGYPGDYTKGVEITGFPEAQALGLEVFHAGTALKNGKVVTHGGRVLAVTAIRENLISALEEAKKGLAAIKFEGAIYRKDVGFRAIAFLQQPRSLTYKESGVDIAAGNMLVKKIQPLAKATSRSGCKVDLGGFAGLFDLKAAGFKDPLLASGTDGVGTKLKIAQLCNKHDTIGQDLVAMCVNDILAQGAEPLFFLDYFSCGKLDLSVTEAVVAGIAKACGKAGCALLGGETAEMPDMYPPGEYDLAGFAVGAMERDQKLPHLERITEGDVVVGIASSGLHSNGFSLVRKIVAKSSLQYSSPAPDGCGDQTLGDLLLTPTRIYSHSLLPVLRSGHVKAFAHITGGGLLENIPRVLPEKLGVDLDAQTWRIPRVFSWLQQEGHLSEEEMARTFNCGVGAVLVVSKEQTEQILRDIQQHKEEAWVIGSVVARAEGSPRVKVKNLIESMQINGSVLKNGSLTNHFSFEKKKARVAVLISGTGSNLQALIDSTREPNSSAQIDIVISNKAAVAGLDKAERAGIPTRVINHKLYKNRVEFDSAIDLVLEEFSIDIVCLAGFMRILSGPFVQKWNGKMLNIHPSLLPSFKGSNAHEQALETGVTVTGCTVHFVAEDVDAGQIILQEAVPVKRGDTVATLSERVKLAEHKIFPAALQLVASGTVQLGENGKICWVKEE

[11] = Inhibition of Escherichia coli glycinamide ribonucleotide transformylase
[12] = target: Bifunctional purine biosynthesis protein ATIC (Homo sapiens, UniProt P31939); assay: Inhibition of human aminoimidazole carboxamide transformylase
Bifunctional purine biosynthesis protein ATIC, sequence (P31939 whole entry): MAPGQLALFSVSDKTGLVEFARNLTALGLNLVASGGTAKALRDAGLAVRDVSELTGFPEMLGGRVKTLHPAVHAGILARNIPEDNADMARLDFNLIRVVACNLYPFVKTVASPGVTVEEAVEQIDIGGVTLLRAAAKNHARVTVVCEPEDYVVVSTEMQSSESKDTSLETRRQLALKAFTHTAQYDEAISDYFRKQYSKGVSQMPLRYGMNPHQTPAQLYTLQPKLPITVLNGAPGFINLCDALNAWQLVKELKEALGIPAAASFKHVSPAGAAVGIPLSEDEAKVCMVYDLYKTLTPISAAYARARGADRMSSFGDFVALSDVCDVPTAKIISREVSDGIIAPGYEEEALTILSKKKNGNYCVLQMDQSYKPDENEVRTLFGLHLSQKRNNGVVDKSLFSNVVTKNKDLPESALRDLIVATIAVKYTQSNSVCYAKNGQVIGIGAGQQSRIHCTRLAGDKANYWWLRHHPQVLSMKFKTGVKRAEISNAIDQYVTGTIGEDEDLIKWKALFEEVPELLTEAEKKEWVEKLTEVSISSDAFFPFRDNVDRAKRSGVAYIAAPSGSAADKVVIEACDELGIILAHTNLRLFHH

Homo sapiens [13] = organism: Homo sapiens; assay: Selectivity for human recombinant cathepsin S over human recombinant L
Homo sapiens [14] = organism: Homo sapiens; assay: Selectivity for human recombinant cathepsin S over human recombinant K
Homo sapiens [15] = organism: Homo sapiens; assay: Selectivity for human recombinant cathepsin S over human cathepsin B
[16] = Selectivity for rat FAAH over carboxylesterase 1 lipase
[17] = Selectivity for rat FAAH over triacylglycerol hydrolase
[18] = Selectivity for rat FAAH over monoacylglycerol lipase
[19] = Selectivity for rat FAAH over lipoprotein lipase
Hamster = assay: Efficacy in po dosed hamster acute lung injury model; type: functional; conditions: Cricetinae
[20] = Oral bioavailability in rat at 3 mg/kg; type: ADME, organism-based; conditions: in vivo
[21] = Tmax in rat at 3 mg/kg, po; type: ADME, organism-based; set-up: dose 3 mg/kg, route oral; conditions: in vivo
[22] = Inhibition of HCV NS34A protease; set-up: species or system Hepacivirus hominis
Chymase = Chymase (Homo sapiens, UniProt P23946)
Chymase, sequence (P23946 whole entry): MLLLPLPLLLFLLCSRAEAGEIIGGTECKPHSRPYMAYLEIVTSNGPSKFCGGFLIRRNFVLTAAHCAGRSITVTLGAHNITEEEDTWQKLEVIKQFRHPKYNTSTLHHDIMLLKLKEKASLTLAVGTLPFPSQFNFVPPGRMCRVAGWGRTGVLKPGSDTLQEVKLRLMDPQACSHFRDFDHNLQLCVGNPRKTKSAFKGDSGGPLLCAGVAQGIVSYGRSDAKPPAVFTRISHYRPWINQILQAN

Complement factor B = Complement factor B (Homo sapiens, UniProt P00751); assay: Inhibition of C3 convertase
Complement factor B, sequence (P00751 whole entry): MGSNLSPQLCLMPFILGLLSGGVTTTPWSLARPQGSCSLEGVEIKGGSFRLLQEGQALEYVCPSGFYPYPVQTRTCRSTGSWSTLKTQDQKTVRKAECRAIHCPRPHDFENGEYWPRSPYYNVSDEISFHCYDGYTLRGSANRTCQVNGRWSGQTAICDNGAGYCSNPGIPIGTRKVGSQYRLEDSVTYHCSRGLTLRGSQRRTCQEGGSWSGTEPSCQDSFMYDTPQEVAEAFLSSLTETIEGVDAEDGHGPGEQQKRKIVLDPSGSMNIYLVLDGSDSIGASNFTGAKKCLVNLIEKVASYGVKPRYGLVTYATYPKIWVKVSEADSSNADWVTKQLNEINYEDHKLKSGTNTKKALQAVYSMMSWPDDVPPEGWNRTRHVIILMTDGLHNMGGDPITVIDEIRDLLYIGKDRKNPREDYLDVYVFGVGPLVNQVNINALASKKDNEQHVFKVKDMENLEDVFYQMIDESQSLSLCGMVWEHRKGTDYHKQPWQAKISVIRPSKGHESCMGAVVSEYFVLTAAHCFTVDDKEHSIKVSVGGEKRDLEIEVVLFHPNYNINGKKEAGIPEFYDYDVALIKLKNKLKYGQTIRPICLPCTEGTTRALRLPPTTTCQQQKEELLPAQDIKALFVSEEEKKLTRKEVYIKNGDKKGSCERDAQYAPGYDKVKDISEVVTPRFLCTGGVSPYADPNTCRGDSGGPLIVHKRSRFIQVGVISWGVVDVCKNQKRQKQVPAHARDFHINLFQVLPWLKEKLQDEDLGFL

Coagulation factor VII = Coagulation factor VII (Homo sapiens, UniProt P08709); assay: Inhibition of human factor 7a
Coagulation factor VII, sequence (P08709 61-212 limits assumed): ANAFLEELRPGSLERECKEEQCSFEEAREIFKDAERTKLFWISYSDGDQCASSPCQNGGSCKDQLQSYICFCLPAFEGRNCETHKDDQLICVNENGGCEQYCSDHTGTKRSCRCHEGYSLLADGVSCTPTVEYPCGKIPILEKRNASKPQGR
Coagulation factor VII, sequence (P08709 213-466 limits assumed): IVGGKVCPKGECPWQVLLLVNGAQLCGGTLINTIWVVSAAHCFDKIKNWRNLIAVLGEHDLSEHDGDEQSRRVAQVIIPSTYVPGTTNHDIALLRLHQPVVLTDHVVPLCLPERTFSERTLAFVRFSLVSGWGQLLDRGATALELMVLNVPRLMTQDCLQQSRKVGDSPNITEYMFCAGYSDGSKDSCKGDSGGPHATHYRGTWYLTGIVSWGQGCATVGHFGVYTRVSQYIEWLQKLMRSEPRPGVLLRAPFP

Structure (SMILES): CCOC(=O)N[C@@H](CCCCN)C(=O)c1noc(Cc2ccc(OCCc3ccccc3)cc2)n1
- Selectivity ratio [1]: 35
- Selectivity ratio [2]: > 1000
- Selectivity ratio (Homo sapiens [3]): > 1000
- bioavailability [4]: 8%
- Selectivity ratio [5]: 80
- Ki [6]: 5 nM
- Selectivity ratio [7]: > 1000

Structure (SMILES): CC(C)[C@H](NC(=O)[C@H](CC1CCCCC1)NC(=O)N[C@H](C)c1ccc(Br)cc1)C(=O)N[C@@H](CCCNC(=N)N)C(=O)c1nccs1
- IC50 (Coagulation factor X): 2700 nM
- IC50 (Coagulation factor XI): 10 nM
- IC50 (Prothrombin): 0.98 µM

Structure (SMILES): O=C(c1cc(-c2ccccc2)on1)[C@@H]1CCCN1C(=O)[C@@H]1CCCN1C(=O)OCc1ccccc1
- EC50 (Trypanosoma cruzi): 6700 µg/mL (≈ 14.1 mM)
- EC50 [8]: 2200 µg/mL (≈ 4.65 mM)

Structure (SMILES): CSCCC(N)C(=O)c1ccccn1 (racemic)
- IC50 [9]: 16 µM

Structure (SMILES): CC(C)(C)c1nnc(C(=O)[C@@H]2CCCN2)o1
- Ki (Proline iminopeptidase): 500 nM

Structure (SMILES): CCC[C@H](NC(=O)C1(NC(=O)c2ccc(N(C)C)cc2)CCCCC1)C(=O)c1nnc(-c2ccco2)o1
- IC50 (Osteoclast): 130 nM

Structure (SMILES): CN[C@H](Cc1ccccc1)C(=O)N1CCC[C@H]1C(=O)N[C@@H](CCCNC(=N)N)C(=O)c1nc2ccc(C(=O)O)cc2s1
- IC50 (Platelet): 30 nM
- ED50 (Canis familiaris): 0.1 mg/kg

Structure (SMILES): Nc1nc(N)c(CCCCCC(=O)c2nc3ccccc3o2)c(=O)[nH]1
- Ki [10]: > 100 µM
- Ki [11]: 15 µM
- Ki [12]: > 100 µM

Structure (SMILES): O=C(N[C@H](C(=O)c1nc2ccccc2o1)C1CC1)O[C@@H](CC1CCCCC1)C(=O)N1CCOCC1
- Selectivity ratio (Homo sapiens [13]): > 100
- Selectivity ratio (Homo sapiens [14]): > 100
- Selectivity ratio (Homo sapiens [15]): > 100

Structure (SMILES): O=C(CCCCCc1ccccc1)c1nc2ncccc2o1
- Selectivity ratio [16]: > 10000
- Selectivity ratio [17]: 10
- Selectivity ratio [18]: > 10000
- Selectivity ratio [19]: > 10000

Structure (SMILES): CC(C)C(NC(=O)Cn1c(-c2ccccc2)ncc(N)c1=O)C(=O)c1nnc(C(C)(C)C)o1 (racemic)
- ED50 (Hamster): 5.1 mg/kg
- bioavailability [20]: 50%
- Tmax [21]: 36 min

Structure (SMILES): CC[C@H](NC(=O)[C@@H]1C[C@@H](OCc2ccccc2)CN1C(=O)[C@@H](NC(=O)[C@@H](NC(=O)c1cnccn1)C(C)C)C(C)C)C(=O)c1nnc(-c2ccccc2)o1
- Ki [22]: 35 µM

Structure (SMILES): COC(=O)c1ccc2oc(C(=O)[C@H](Cc3ccccc3)NC(=O)Cn3c(-c4ccc(F)cc4)ncc(N)c3=O)nc2c1
- Ki (Chymase): 23 nM

Structure (SMILES): CC[C@H](C)[C@H](N)C(=O)N[C@H]1CSSC[C@@H](C(=O)N[C@H](C(N)=O)[C@@H](C)O)NC(=O)[C@H](CCCN=C(N)N)NC(=O)[C@H](Cc2cnc[nH]2)NC(=O)[C@H](Cc2cnc[nH]2)NC(=O)CNC(=O)[C@H](Cc2c[nH]c3ccccc23)NC(=O)[C@H](CC(=O)O)NC(=O)[C@H](CCC(N)=O)NC(=O)[C@H](C(C)C)NC(=O)[C@H](C(C)C)NC1=O [COMPSTATIN]
- IC50 (Complement factor B): 3.4 µM

Structure (SMILES): CC[C@H](C)[C@H](NC(=O)[C@@H](Cc1ccccc1)NS(=O)(=O)Cc1ccccc1)C(=O)N[C@@H](CCCN=C(N)N)C(=O)c1nccs1
- IC50 (Coagulation factor X): 380 nM
- IC50 (Coagulation factor VII): 300 nM
- IC50 (Prothrombin): 19 µM
